We go through four molecules from patent US10364238B2, “N-((het) arylmethyl)-heteroaryl-carboxamides compounds as plasma kallikrein inhibitors” (KALVISTA PHARMACEUTICALS LIMITED, priority 2014, dated 2019).

The target in one series is Human plasma kallikrein (Homo sapiens (Human), UniProt P03952). Put plainly: Determination of the IC50 for plasma kallikrein. The class given is biochemical. The settings on record: 25° C., fluorogenic substrate H-DPro-Phe-Arg-AFC; read-out: IC50 (human PKaI). How it is done: Determination of the IC50 for Plasma Kallikrein
Chain of Human plasma kallikrein (P03952 391-638): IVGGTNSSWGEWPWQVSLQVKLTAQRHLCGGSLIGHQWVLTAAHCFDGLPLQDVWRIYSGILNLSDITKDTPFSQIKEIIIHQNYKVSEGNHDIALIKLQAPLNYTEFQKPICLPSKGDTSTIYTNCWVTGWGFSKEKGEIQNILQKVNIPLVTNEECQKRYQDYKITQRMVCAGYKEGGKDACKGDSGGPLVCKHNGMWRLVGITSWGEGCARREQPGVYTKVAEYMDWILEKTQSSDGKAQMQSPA
Chain of Human plasma kallikrein (P03952 20-390 partner): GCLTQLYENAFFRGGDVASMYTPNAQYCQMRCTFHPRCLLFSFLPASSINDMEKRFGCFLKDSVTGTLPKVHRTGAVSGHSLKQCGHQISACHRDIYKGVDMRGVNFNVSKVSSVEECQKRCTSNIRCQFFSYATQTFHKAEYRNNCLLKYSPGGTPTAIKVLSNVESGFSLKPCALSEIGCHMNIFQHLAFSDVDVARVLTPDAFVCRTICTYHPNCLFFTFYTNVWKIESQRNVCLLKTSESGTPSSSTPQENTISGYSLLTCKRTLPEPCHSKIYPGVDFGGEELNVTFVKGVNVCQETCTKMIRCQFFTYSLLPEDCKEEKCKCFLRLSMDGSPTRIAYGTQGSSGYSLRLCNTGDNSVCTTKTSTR
Human plasma kallikrein (Protogen) was incubated at 25° C. with the fluorogenic substrate H-DPro-Phe-Arg-AFC and various concentrations of the test compound. Residual enzyme activity (initial rate of reaction) was determined by measuring the change in […] at 410 nm and the IC50 value for the test compound was determined.

For another series, the target named is Human KLK1 (Homo sapiens (Human), UniProt P06870). Nature of the series: Determination of the IC50 for KLK1. The class given is biochemical. The settings on record: 25° C., fluorogenic substrate H-DVal-Leu-Arg-AFC. Here is the method:
Determination of the IC50 for KLK1
Human KLK1 (Callbiochem) was incubated at 25° C. with the fluorogenic substrate H-DVal-Leu-Arg-AFC and various concentrations of the test compound. Residual enzyme activity (initial rate of reaction) was determined by measuring the change in […] at 410 nm and the IC50 value for the test compound was determined.

The target of a further series is Human FXIa (Homo sapiens (Human), UniProt P03951). Put plainly: Determination of the % inhibition for FXIa. Format: biochemical. The settings on record: 40 μM test compound, 25° C., substrate Z-Gly-Pro-Arg-AFC. How it is done: Determination of the % Inhibition for FXIa
Chain of Human FXIa (P03951 388-625): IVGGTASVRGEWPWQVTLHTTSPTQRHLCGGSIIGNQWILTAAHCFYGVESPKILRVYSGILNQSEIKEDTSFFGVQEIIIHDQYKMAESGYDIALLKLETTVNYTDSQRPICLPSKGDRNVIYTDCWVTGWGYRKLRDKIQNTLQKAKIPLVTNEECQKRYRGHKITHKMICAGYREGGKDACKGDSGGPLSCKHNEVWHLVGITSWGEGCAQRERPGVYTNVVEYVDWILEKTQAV
Chain of Human FXIa (P03951 19-387 partner): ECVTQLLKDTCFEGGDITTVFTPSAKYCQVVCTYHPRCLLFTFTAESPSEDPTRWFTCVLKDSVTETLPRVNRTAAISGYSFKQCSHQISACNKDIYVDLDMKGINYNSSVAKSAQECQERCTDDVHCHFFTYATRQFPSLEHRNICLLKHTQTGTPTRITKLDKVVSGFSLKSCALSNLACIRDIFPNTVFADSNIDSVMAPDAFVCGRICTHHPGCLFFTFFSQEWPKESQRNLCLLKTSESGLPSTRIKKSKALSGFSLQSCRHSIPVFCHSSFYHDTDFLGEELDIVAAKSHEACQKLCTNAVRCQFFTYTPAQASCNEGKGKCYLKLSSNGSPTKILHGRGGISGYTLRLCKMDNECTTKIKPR
Human FXIa (Enzyme Research Laboratories) was incubated at 25° C. with the fluorogenic substrate Z-Gly-Pro-Arg-AFC and 40 μM of the test compound. Residual enzyme activity (initial rate of reaction) was determined by measuring the change in […].

Series [1] in a line: Pharmacokinetics following a single oral dose in rats. The class given is in vivo. The settings on record: rat, nominal 10 mg/kg, male Sprague-Dawley rats, plasma. Here is the method: Pharmacokinetic studies of the compounds in Table 15 were performed to assess the pharmacokinetics following a single oral dose in male Sprague-Dawley rats. Two rats were given a single po dose of 5 mL/kg of a nominal 2 mg/mL (10 mg/kg) composition of test compound in vehicle. Following dosing, blood samples were collected over a period of 24 hours. Sample times were 5, 15 and 30 minutes then 1, 2, 4, 6, 8 and 12 hours. Following collection, blood samples were centrifuged and the plasma fraction analysed for concentration of test compound by LCMS.

Another series concerns diabetic rats. The settings on record: cited from earlier work.
The conditions of series [2]: in vivo; cited from earlier work.

Chain of Human KLK1 (P06870 25-262): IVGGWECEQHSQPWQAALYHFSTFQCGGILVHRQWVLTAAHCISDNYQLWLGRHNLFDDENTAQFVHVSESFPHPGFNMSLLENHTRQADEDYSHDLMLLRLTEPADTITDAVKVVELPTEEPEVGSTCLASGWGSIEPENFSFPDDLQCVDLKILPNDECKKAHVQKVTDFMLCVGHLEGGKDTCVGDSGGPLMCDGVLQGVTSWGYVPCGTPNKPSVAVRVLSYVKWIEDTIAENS

For `COc1cccc(CNC(=O)c2cn(Cc3ccc(Cn4ccccc4=O)cc3)nc2N)c1F` [Example 2, 3-Amino-1-[4-(2-oxo-2H-pyridin-1-ylmethyl)-benzyl]-1H-pyrazole-4-carboxylic acid 2-fluoro-3-methoxy-benzylamide], the IC50 at Human plasma kallikrein turned out to be 8.7 nM. Moreover, the concentration for half-maximal inhibition (IC50) against Human KLK1 was above 10000 nM. Also, the inhibition at 40 µM on Human FXIa was determined as 8%. In series [1], the Cmax was found to be 351 ng/mL and the time of peak concentration (Tmax) is 1 h.

With `COCc1nn(Cc2ccc(Cn3ccccc3=O)cc2)cc1C(=O)NCc1c(F)ccc(OC)c1F` [Example 66, N-[(2,6-difluoro-3-methoxyphenyl)methyl]-3-(methoxymethyl)-1-({4-[(2-oxopyridin-1-yl)methyl]phenyl}methyl)pyrazole-4-carboxamide], the results for the half-inhibitory concentration (IC50) on Human plasma kallikrein and on Human KLK1 were 4.6 nM and above 10000 nM, respectively. In addition, at Human FXIa, 40 µM produced 4% inhibition. Besides, in series [1], the maximum concentration (Cmax) was 2890 ng/mL. The Tmax in series [1] is 1 h.

As for `COCc1nn(Cc2ccc(Cn3ccccc3=O)cc2)cc1C(=O)NCc1nccc(OC)c1F` [Example 41, N-[(3-fluoro-4-methoxypyridin-2-yl)methyl]-3-(methoxymethyl)-1-({4-[(2-oxopyridin-1-yl)methyl]phenyl}methyl)pyrazole-4-carboxamide], at Human KLK1, the IC50 is above 40000 nM. In addition, the inhibition at 40 µM at Human FXIa amounted to 0%. Also, in series [1], the Cmax is 1530 ng/mL and the time to peak (Tmax) was 3 h.

Take `N=C(N)c1ccc(CNC(=O)c2cnn(Cc3ccccc3)c2)cc1` [ASP-440]: the “effect on retinal vascular permeability and retinal blood flow abnormalities” value with diabetic rats was “ameliorated both retinal vascular permeability and retinal blood flow abnormalities”. In series [2], the oral availability result is “poor oral availability”.
